According to patent US20220267310A1, “QUINAZOLINE AND CINNOLINE DERIVATIVES AS DNA-PK INHIBITOR” (MEDSHINE DISCOVERY INC., priority 2019, published 2022):

Tests used:
PI3K (p110β/p85α) = molecular target: T1, PI3K (p110β/p85α) (Homo sapiens, UniProt P42338); assay: PI3K (p110β/p85α) kinase inhibitory activity (HTRF); assay type: biochemical
T1 construct: Eurofins Pharma Discovery Service (contract assay)
Procedure: (§1) This experiment was tested at Eurofins Pharma Discovery Service, Reaction Biology Corp. (RBC)
(§2) […] DNA-PK: Mg/ATP; GST-cMyc-p53; EDTA; Ser15 antibody; ATP: 10 μM; biotinylated phosphatidylinositol-3,4,5-triphosphate; GST label GRP1 PH domain; streptavidin and phycocyanin; europium-labelled monoclonal antibody against GST.
(§3) PI3K (p110β/p85α) was incubated in a determination buffer containing phosphatidylinositol 4,5-diphosphate and Mg/ATP (density as required). The reaction was initiated by adding a mixture of Mg/ATP. After incubating at room temperature for 30 min, a termination solution containing EDTA and biotinylated phosphatidylinositol-3,4, 5-triphosphate was added to terminate the reaction. Finally, a detection buffer (containing labeled anti-GST monoclonal antibody, PH domain of GRP1 with GST label and streptavidin and phycyanin and […]) was added. Then, the board was read in time-resolved fluorescence mode, and an HTRF signal was measured according to the formula HTRF=10000×(Em665 nm/Em620 nm).

PI3K (p110α/p85α) = molecular target: T2, PI3K (p110α/p85α) (Homo sapiens, UniProt P42336); assay: PI3K (p110α/p85α) kinase inhibitory activity (HTRF); assay type: biochemical
T2 construct: Eurofins Pharma Discovery Service (contract assay)

PI3K (p120γ) = molecular target: T3, PI3K (p120γ) (Homo sapiens, UniProt P48736); assay: PI3K (p120γ) kinase inhibitory activity (HTRF); assay type: biochemical
T3 construct: Eurofins Pharma Discovery Service (contract assay)
Procedure: as §1, §2
as §3, with “(p120γ)” for “(p110β/p85α)”, “phosphatidylinositol-3,4,5-triphosphate” for “phosphatidylinositol-3,4, 5-triphosphate”

[1] = test system: human head and neck cancer FaDu cell subcutaneous xenograft tumor; assay: FaDu subcutaneous xenograft, mono and combination with radiotherapy; assay type: in vivo; conditions: for Tumor volume (mm^3), 3 days after administration: day 3; for Tumor volume (mm^3), 3 days after administration / Tumor volume (mm^3), 7 days after administration / Tumor volume (mm^3), 10 days after administration / Tumor volume (mm^3), 14 days after administration / Tumor volume (mm^3), 17 days after administration / Tumor volume (mm^3), 23 days after administration / Tumor volume (mm^3), 28 days after administration / Tumor volume (mm^3), 31 days after administration / Tumor volume (mm^3), 35 days after administration / Tumor volume (mm^3), 42 days after administration / Tumor volume (mm^3), 49 days after administration / Tumor volume (mm^3), 56 days after administration / Tumor volume (mm^3), 63 days after administration / Tumor volume (mm^3), 70 days after administration / Tumor volume (mm^3) (0th day) / Tumor volume (mm^3) (21th day): average ± SEM, n = 8; for Tumor volume (mm^3), 7 days after administration: day 7; for Tumor volume (mm^3), 10 days after administration: day 10; for Tumor volume (mm^3), 14 days after administration: day 14; for Tumor volume (mm^3), 17 days after administration: day 17; for Tumor volume (mm^3), 23 days after administration: day 23; for Tumor volume (mm^3), 28 days after administration: day 28; for Tumor volume (mm^3), 31 days after administration: day 31; for Tumor volume (mm^3), 35 days after administration: day 35; for Tumor volume (mm^3), 42 days after administration: day 42; for Tumor volume (mm^3), 49 days after administration: day 49; for Tumor volume (mm^3), 56 days after administration: day 56; for Tumor volume (mm^3), 63 days after administration: day 63; for Tumor volume (mm^3), 70 days after administration: day 70; for RTV (21th day) / T/C (%) (21th day) / TGI (%) (21th day) / Tumor volume (mm^3) (0th day) / Tumor volume (mm^3) (21th day): PO
Procedure: Experiment purpose: The antitumor activity of the tested compound was evaluated in a nude mouse model of human head and neck cancer FaDu cell subcutaneous xenograft tumor
Experimental animals: Female BALB/c nude mice, 6-8 weeks old, weighing 17-23 grams; supplier: B&K Universal Group Limited
Human head and neck cancer FaDu cell (ATCC, Manassas. Virginiaite, item number: HTB-43) was cultured in vitro in a culture condition of EMEM medium with 10% fetal bovine serum, 100 U/mL penicillin and 100 μg/mL streptomycin, incubated at 37° C. and 5% CO2. Conventional digestive treatment passage was carried out using pancreatic enzyme—EDTA twice a week.
Each mouse was subcutaneously inoculated with 0.1 mL ([…]) FaDu cells at the right dorsal position, and when the average tumor volume reaches about 106 mm^3, randomization was used for initiating drug administration.
The tested compound was prepared as a 5 mg/mL clarified solution with 10% DMSO+50% polyethylene glycol 400+40% water as the solvent. Preparation was conducted every three days.
The experimental indicators refers to study whether tumor growth was inhibited, delayed, or cured. Tumor diameter was measured twice a week with a vernier caliper. The calculation formula of the tumor volume was V=0.5a×b^2, and a and b represent the long diameter and short diameter of the tumor, respectively.
The antitumor efficacy of the compound was evaluated by TGI (%) or relative tumor proliferation rate T/C (%). TGI (%) reflects the tumor growth inhibition rate. The calculation of TGI (%): TGI (%)=[1−(average tumor volume at the end of administration of a certain treatment group−average tumor volume at the beginning of administration of the treatment group)/(average tumor volume at the end of treatment in solvent control group−average tumor volume at the beginning of treatment in solvent control group)]×control group.
Relative tumor proliferation rate T/C (%): the calculation formula was as follows: T/C %=[…] TRTV/CRTV group (TRTV: treatment group RTV: CRTV: negative control group RTV). According to results of tumor measurement. Relative Tumor Volume (RTV) was calculated by the formula RTV=Vt/V0, where V0 was the average tumor volume measured in group administration (i.e., d0), and Vt was the average tumor volume measured in a certain single measurement. TRTV and CRTV collect data on the same day.
Statistic analysis includes an average value and a standard error (SEM) of tumor volume at each time point for each group. […] If there was no significant difference in F value, Dunnet (2-sided) method was applied to analysis. All data were analyzed using SPSS 17.0. P<0.05 was considered as having a significant difference.

[2] = 25 mg/kg, QD + radiotherapy 2 Gy
[3] = 50 mg/kg, QD + radiotherapy 2 Gy

T3 sequence (P48736 whole entry): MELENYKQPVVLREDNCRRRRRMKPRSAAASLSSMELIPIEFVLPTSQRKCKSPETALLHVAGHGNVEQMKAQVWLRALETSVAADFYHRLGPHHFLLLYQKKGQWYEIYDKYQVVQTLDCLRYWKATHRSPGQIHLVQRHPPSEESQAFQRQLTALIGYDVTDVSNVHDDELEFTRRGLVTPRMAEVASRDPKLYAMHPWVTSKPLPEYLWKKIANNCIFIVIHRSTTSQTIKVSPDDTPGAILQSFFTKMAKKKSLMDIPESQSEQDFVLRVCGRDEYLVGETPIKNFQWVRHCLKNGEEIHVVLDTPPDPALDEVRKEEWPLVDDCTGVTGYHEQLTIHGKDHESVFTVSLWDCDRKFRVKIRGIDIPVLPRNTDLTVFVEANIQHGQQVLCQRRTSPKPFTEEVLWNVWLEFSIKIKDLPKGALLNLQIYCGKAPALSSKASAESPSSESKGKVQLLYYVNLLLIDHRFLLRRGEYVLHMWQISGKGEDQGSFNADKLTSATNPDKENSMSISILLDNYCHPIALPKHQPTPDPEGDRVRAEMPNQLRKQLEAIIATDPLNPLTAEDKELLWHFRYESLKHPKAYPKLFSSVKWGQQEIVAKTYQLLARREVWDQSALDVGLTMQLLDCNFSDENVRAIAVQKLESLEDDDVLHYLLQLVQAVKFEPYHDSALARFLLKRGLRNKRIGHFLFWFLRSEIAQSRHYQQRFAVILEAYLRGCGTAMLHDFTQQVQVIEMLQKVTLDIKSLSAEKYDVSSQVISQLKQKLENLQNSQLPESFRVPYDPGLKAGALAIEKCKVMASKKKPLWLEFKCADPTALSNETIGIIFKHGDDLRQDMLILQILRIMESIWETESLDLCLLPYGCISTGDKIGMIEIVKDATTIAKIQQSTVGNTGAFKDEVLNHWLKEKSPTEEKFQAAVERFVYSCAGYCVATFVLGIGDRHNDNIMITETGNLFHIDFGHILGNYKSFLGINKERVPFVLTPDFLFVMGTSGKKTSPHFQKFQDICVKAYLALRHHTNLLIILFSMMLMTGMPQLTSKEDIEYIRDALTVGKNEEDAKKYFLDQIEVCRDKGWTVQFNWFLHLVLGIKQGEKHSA
T2 sequence (P42336 whole entry, species assumed): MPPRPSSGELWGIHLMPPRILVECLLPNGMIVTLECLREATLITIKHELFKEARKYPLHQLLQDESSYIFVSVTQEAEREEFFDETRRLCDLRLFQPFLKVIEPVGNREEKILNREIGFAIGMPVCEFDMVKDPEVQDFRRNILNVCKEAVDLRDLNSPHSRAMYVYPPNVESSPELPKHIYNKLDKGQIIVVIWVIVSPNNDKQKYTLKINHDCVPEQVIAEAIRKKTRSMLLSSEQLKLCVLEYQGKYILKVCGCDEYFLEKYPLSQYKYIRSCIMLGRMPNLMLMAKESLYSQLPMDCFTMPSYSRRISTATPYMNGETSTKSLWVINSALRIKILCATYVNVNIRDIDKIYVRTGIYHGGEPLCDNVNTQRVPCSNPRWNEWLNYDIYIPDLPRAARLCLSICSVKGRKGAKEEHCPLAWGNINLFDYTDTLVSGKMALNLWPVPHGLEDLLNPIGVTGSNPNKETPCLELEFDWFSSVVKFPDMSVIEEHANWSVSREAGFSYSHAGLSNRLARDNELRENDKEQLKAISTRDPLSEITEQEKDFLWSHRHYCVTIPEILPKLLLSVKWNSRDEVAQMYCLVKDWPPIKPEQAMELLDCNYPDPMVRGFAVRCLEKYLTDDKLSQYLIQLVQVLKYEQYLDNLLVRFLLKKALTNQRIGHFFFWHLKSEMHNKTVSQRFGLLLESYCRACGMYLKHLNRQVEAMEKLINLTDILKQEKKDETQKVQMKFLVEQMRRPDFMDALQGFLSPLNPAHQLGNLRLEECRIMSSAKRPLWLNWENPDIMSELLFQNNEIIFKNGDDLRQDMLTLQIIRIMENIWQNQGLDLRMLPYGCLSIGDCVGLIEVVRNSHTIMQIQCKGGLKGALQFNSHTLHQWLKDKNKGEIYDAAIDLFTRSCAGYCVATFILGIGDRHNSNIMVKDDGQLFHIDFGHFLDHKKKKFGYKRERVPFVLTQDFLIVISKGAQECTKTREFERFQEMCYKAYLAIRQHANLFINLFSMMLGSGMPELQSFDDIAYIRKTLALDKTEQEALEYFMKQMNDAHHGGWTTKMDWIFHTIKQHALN
T2 sequence (P27986 whole entry partner, species assumed): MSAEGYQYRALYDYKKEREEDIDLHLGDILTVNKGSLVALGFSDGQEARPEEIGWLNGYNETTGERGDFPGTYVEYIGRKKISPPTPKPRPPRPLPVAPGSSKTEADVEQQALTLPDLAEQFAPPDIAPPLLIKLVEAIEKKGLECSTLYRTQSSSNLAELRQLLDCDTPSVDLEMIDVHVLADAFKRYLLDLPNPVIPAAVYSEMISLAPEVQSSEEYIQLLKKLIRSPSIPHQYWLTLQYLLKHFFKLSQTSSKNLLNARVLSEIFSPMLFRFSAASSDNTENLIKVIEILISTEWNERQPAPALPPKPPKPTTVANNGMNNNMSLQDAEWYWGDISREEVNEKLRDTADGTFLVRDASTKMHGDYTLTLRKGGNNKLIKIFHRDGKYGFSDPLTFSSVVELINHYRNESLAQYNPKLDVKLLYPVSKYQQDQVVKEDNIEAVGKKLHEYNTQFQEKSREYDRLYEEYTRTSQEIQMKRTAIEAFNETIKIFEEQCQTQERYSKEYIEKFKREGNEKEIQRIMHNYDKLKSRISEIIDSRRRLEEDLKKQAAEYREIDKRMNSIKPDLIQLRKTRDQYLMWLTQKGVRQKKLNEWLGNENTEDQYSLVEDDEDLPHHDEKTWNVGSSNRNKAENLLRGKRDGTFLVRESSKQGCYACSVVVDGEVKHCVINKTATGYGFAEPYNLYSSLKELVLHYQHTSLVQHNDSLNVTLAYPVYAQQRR
T1 sequence (P42338 whole entry, species assumed): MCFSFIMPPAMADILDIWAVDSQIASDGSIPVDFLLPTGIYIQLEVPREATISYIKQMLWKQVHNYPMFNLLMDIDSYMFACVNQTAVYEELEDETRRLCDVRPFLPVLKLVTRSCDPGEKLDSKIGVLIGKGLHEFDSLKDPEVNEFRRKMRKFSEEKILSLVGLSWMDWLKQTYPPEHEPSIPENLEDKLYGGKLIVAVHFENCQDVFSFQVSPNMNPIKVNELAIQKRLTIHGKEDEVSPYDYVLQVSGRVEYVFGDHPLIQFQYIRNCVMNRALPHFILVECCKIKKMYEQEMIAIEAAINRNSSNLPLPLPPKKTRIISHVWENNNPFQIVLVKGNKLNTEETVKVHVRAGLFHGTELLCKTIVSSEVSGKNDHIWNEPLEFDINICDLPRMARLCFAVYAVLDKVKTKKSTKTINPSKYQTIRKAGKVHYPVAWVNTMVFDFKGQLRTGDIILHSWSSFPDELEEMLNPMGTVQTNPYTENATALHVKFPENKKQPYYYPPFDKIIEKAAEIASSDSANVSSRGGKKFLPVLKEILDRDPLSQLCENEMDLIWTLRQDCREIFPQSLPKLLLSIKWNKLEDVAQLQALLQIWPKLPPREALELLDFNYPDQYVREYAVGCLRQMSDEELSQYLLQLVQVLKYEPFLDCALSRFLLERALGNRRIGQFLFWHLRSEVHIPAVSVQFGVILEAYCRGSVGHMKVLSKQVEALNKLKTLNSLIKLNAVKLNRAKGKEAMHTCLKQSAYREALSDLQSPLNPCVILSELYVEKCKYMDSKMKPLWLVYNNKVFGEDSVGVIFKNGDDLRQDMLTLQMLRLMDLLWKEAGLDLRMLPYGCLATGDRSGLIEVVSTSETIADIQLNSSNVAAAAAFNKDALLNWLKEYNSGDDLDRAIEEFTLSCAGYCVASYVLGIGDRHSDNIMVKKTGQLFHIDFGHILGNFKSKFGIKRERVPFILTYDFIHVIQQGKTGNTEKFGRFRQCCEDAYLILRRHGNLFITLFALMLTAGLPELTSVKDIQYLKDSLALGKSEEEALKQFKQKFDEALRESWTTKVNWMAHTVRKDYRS
T1 sequence (P27986 whole entry partner, species assumed): as the sequence (P27986 whole entry partner, species assumed) above

Structure (SMILES): COc1ccc(C(O)c2cc(-c3cnnc4c(F)c(N5CCOCC5)cc(F)c34)c(F)cc2Cl)nn1 (single isomer, unassigned) [Embodiment 19]
- IC50 (PI3K (p110β/p85α)): 345 nM
- IC50 (PI3K (p110α/p85α)): 483 nM
- IC50 (PI3K (p120γ)): 9150 nM
- Tumor volume (mm^3), 3 days after administration ([1]; 25 mg/kg + 2 Gy): 172 ± 16 mm^3
- Tumor volume (mm^3), 7 days after administration ([1]; 25 mg/kg + 2 Gy): 136 ± 11 mm^3
- Tumor volume (mm^3), 10 days after administration ([1]; 25 mg/kg + 2 Gy): 76 ± 11 mm^3
- Tumor volume (mm^3), 14 days after administration ([1]; 25 mg/kg + 2 Gy): 29 ± 5 mm^3
- Tumor volume (mm^3), 17 days after administration ([1]; 25 mg/kg + 2 Gy): 11 ± 3 mm^3
- Tumor volume (mm^3), 23 days after administration ([1]; 25 mg/kg + 2 Gy): 1 ± 1 mm^3
- Tumor volume (mm^3), 28 days after administration ([1]; 25 mg/kg + 2 Gy): 0 ± 0 mm^3
- Tumor volume (mm^3), 31 days after administration ([1]; 25 mg/kg + 2 Gy): 0 ± 0 mm^3
- Tumor volume (mm^3), 35 days after administration ([1]; 25 mg/kg + 2 Gy): 0 ± 0 mm^3
- Tumor volume (mm^3), 42 days after administration ([1]; 25 mg/kg + 2 Gy): 0 ± 0 mm^3
- Tumor volume (mm^3), 49 days after administration ([1]; 25 mg/kg + 2 Gy): 0 ± 0 mm^3
- Tumor volume (mm^3), 56 days after administration ([1]; 25 mg/kg + 2 Gy): 0 ± 0 mm^3
- Tumor volume (mm^3), 63 days after administration ([1]; 25 mg/kg + 2 Gy): 0 ± 0 mm^3
- Tumor volume (mm^3), 70 days after administration ([1]; 25 mg/kg + 2 Gy): 0 ± 0 mm^3
- RTV (21th day) [1, 2]: 0.01 ± 0.01
- T/C (%) (21th day) [1, 2]: 0.08%
- TGI (%) (21th day) [1, 2]: 108.61%
- Tumor volume (mm^3) (0th day) ([1]; 25 mg/kg, QD + radiotherapy 2 Gy, 5-day radiotherapy, 2-day withdrawal): 106 ± 6 mm^3
- Tumor volume (mm^3) (21th day) [1, 2]: 1 ± 1 mm^3
- Tumor volume (mm^3), 3 days after administration ([1]; 50 mg/kg + 2 Gy): 175 ± 14 mm^3
- Tumor volume (mm^3), 7 days after administration ([1]; 50 mg/kg + 2 Gy): 155 ± 17 mm^3
- Tumor volume (mm^3), 10 days after administration ([1]; 50 mg/kg + 2 Gy): 97 ± 16 mm^3
- Tumor volume (mm^3), 14 days after administration ([1]; 50 mg/kg + 2 Gy): 45 ± 10 mm^3
- Tumor volume (mm^3), 17 days after administration ([1]; 50 mg/kg + 2 Gy): 12 ± 5 mm^3
- Tumor volume (mm^3), 23 days after administration ([1]; 50 mg/kg + 2 Gy): 1 ± 1 mm^3
- Tumor volume (mm^3), 28 days after administration ([1]; 50 mg/kg + 2 Gy): 1 ± 0 mm^3
- Tumor volume (mm^3), 31 days after administration ([1]; 50 mg/kg + 2 Gy): 0 ± 0 mm^3
- Tumor volume (mm^3), 35 days after administration ([1]; 50 mg/kg + 2 Gy): 0 ± 0 mm^3
- Tumor volume (mm^3), 42 days after administration ([1]; 50 mg/kg + 2 Gy): 0 ± 0 mm^3
- Tumor volume (mm^3), 49 days after administration ([1]; 50 mg/kg + 2 Gy): 0 ± 0 mm^3
- Tumor volume (mm^3), 56 days after administration ([1]; 50 mg/kg + 2 Gy): 0 ± 0 mm^3
- Tumor volume (mm^3), 63 days after administration ([1]; 50 mg/kg + 2 Gy): 0 ± 0 mm^3
- Tumor volume (mm^3), 70 days after administration ([1]; 50 mg/kg + 2 Gy): 0 ± 0 mm^3
- animal death or euthanasia during the study ([1]; 50 mg/kg alone, one animal of the group): euthanized 22 days after the start of administration
- Tumor volume (mm^3), 3 days after administration ([1]; 50 mg/kg alone): 189 ± 18 mm^3
- Tumor volume (mm^3), 7 days after administration ([1]; 50 mg/kg alone): 375 ± 28 mm^3
- Tumor volume (mm^3), 10 days after administration ([1]; 50 mg/kg alone): 568 ± 50 mm^3
- Tumor volume (mm^3), 14 days after administration ([1]; 50 mg/kg alone): 946 ± 108 mm^3
- Tumor volume (mm^3), 17 days after administration ([1]; 50 mg/kg alone): 1120 ± 131 mm^3
- Tumor volume (mm^3), 23 days after administration ([1]; 50 mg/kg alone): 1808 ± 372 mm^3
- RTV (21th day) [1, 3]: 0.01 ± 0.01
- T/C (%) (21th day) [1, 3]: 0.08%
- TGI (%) (21th day) [1, 3]: 108.64%
- Tumor volume (mm^3) (0th day) ([1]; 50 mg/kg, QD + radiotherapy 2 Gy, 5-day radiotherapy, 2-day withdrawal): 106 ± 5 mm^3
- Tumor volume (mm^3) (21th day) [1, 3]: 1 ± 1 mm^3
- RTV (21th day) ([1]; 50 mg/kg, QD, alone): 14.18 ± 2.04
- T/C (%) (21th day) ([1]; 50 mg/kg, QD, alone): 114.35%
- TGI (%) (21th day) ([1]; 50 mg/kg, QD, alone): −15.37%
- Tumor volume (mm^3) (0th day) ([1]; 50 mg/kg, QD, alone): 106 ± 5 mm^3
- Tumor volume (mm^3) (21th day) ([1]; 50 mg/kg, QD, alone): 1501 ± 242 mm^3
